Entries after “also recorded” stand apart in the source; their conditions may differ. Ends that are not written are not given here.
How the values were obtained:
HDPSCs = assay: ALP and toluidine blue staining of HDPSCs cultured on scaffolds; type: cell-based, human; settings: isolated HDPSCs on scaffolds
Protocol: (§1) The HDPSCs were isolated from human dental pulp tissues and cultured on ABM and ABM-P-15 scaffolds in media. The cultured cells on the scaffolds were analysed by live/dead fluorescent markers, histological staining (ALP, Alizalin Red, Toluidine blue), confocal microscopy and scanning electron microscopy. The effect of P-15 on HDPSCs BMP-2 production was confirmed by a well developed promyoblast induction assay via co-culturing of C2C12 promyoblasts and HDPSCs on ABM or ABM-P-15. […] Cell outgrowth from the explants was assessed by live/dead fluorescent markers, histological staining (ALP), confocal microscope and scanning electron microscopy.

[1] = system: human dental pulp explants; assay: Cell outgrowth from human dental pulp explants cultured with scaffolds (live/dead markers, confocal microscopy, SEM); type: cell-based; settings: fluorescence, confocal or SEM images
Protocol: as §1
Teeth were obtained with patients' informed consent following project approval by the NHS local ethical committee (COREC: 06/Q1206/165). Human dental pulp was extracted from sound intact teeth, which had been surgically removed at the Leeds Dental Institute for clinical reasons. Each tooth was washed within a Class II hood and cracked in a bench vice. The dental pulp tissues were harvested and washed with 1×PBS and minced into small pieces (1×2×2 mm^3) which were kept in the PBS and ready for use.
PepGen P-15 (ABM-P15) and/or Osteo-Graf/N-300 (ABM alone) were provided by Cerapedics Inc. (Lakewood, Colo.) in a particulate form. 50 mg of ABM-P-15 and ABM alone were transferred into the 48 well plates and sterilized under UV radiation for 30 minutes. […]

Question: “GTPGPQGIAGQRGVV [P-15, collagen mimetic, 15 amino acid residues of the α1(I) chain of collagen]” was tested. Which “HDPSCs differentiation along the osteogenic lineage (ALP expression)” value (HDPSCs) did it give?
Answer: promoted the HDPSCs differentiation along the osteogenic lineage; also recorded: promoted HDPSCs differentiation along the osteogenic lineage

Question: And the “outgrowth of HDPSCs from dental pulp explants” value ([1]; 50 mg scaffold, basal media)?
Answer: enhanced the outgrowth

Question: What about the “cell bridge formation between adjacent scaffold particles” value ([1]; explant culture) of the same sequence?
Answer: promoted cell bridge formation

From patent US20100098670A1, “Autologous dental pulp stem cell-based bone graft substitute” (Cerapedics Inc., priority 2007, published 2010)
